Experimental data reported in patent publication US20250073255A1, “USE OF FA-TYPE LIPID COMPOUNDS IN PREPARATION OF NUCLEIC ACID DELIVERY REAGENT AND RELATED PRODUCT” (BEIJING BAISHIKANG PHARMACEUTICAL TECHNOLOGY (BSJPHARMA) …, priority 2021, published 2025).

System: C57BL/6 male mice
Experiment: In vivo delivery study of lipid nucleic acid mixture (oral gavage, RT-qPCR of PGY-sRNA-26 in tissues)
Parameters: species or system mouse
Conditions: for overall delivery efficacy: delivering nucleic acids into each tissue and blood tested: 100 μg lipid:10 nmol PGY-sRNA-26, all tissues and blood tested; for oral delivery of single-stranded sRNA nucleic acids into mouse blood / oral delivery of single-stranded sRNA nucleic acids into mouse brain tissue / oral delivery of single-stranded sRNA nucleic acids into mouse femur / oral delivery of single-stranded sRNA nucleic acids into mouse heart tissue / oral delivery of single-stranded sRNA nucleic acids into mouse intestinal tissue / oral delivery of single-stranded sRNA nucleic acids into mouse kidney tissue / oral delivery of single-stranded sRNA nucleic acids into mouse liver tissue / oral delivery of single-stranded sRNA nucleic acids into mouse lung tissue / oral delivery of single-stranded sRNA nucleic acids into mouse spleen tissue / oral delivery of single-stranded sRNA nucleic acids into mouse stomach tissue: 100 μg lipid:10 nmol PGY-sRNA-26, sampled after 12 hours; for oral delivery of single-stranded sRNA nucleic acids into mouse heart tissue: vs free uptake group; for oral delivery of single-stranded sRNA nucleic acids into mouse intestinal tissue: intestine
Outline: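 Lipid (100 μg) and 10 nmol 3'-methylated single-stranded PGY-sRNA-26 were heated at 90 °C for 15 min, then given by oral gavage to mice fasted 12 h. Controls were saline and free sRNA. Blood and tissues were taken at 12 h, and levels were measured by stem-loop RT-qPCR relative to U6.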

Row | Compound | overall delivery efficacy: delivering nucleic acids into each tissue and blood tested | oral delivery of single-stranded sRNA nucleic acids into mouse blood | oral delivery of single-stranded sRNA nucleic acids into mouse brain tissue | oral delivery of single-stranded sRNA nucleic acids into mouse femur | oral delivery of single-stranded sRNA nucleic acids into mouse heart tissue | oral delivery of single-stranded sRNA nucleic acids into mouse intestinal tissue | oral delivery of single-stranded sRNA nucleic acids into mouse kidney tissue | oral delivery of single-stranded sRNA nucleic acids into mouse liver tissue | oral delivery of single-stranded sRNA nucleic acids into mouse lung tissue | oral delivery of single-stranded sRNA nucleic acids into mouse spleen tissue | oral delivery of single-stranded sRNA nucleic acids into mouse stomach tissue
1 | CCCCCCCCCCCCCCCC(N)=O [Lipid 599, hexadecanamide] | best delivery efficacy | can effectively orally deliver | can effectively orally deliver | can effectively orally deliver | can effectively orally deliver | can effectively orally deliver | can effectively orally deliver | can effectively orally deliver | can effectively orally deliver | can effectively orally deliver | can effectively orally deliver
2 | CCCCCCCC/C=C/CCCCCCCCO [Lipid 600, (E)-octadec-9-en-1-ol] | best delivery efficacy | can effectively orally deliver | can effectively orally deliver | can effectively orally deliver | can effectively orally deliver | can effectively orally deliver | can effectively orally deliver | can effectively orally deliver | can effectively orally deliver | can effectively orally deliver | can effectively orally deliver
3 | CCCCCCCCCCCCCCCCCC(N)=O [Lipid 601, octadecanamide] | best delivery efficacy | can effectively orally deliver | can effectively orally deliver | can effectively orally deliver | can effectively orally deliver | can effectively orally deliver | can effectively orally deliver | can effectively orally deliver | can effectively orally deliver | can effectively orally deliver | can effectively orally deliver
4 | CCCCCCCCCCCCCCCC=O [Lipid 602] | best delivery efficacy | can effectively orally deliver | can effectively orally deliver | can effectively orally deliver | can effectively orally deliver | can effectively orally deliver | can effectively orally deliver | can effectively orally deliver | can effectively orally deliver | can effectively orally deliver | can effectively orally deliver
5 | CC1(O)CCOC(=O)C1 (stereo not drawn) [Lipid 603, 4-hydroxy-4-meth-yl-oxan-2-one] | best delivery efficacy | can effectively orally deliver | can effectively orally deliver | can effectively orally deliver | can effectively orally deliver | can effectively orally deliver | can effectively orally deliver | can effectively orally deliver | can effectively orally deliver | can effectively orally deliver | can effectively orally deliver
6 | CCCCCCCCC(C)=O [Lipid 604, decan-2-one] | best delivery efficacy | can effectively orally deliver | can effectively orally deliver | can effectively orally deliver | can effectively orally deliver | can effectively orally deliver | can effectively orally deliver | can effectively orally deliver | can effectively orally deliver | can effectively orally deliver | can effectively orally deliver
7 | CCCCCCCCCCCCCCC(=O)O [Lipid 605, pentadecanoic acid] |  | can effectively orally deliver |  | can effectively orally deliver |  |  |  |  |  |  | can effectively orally deliver
8 | C/C(=C\C(=O)O)C(=O)O [Lipid 606, (E)-2-methylbut-2-enedioic acid] |  | can effectively orally deliver |  | can effectively orally deliver |  |  |  | can effectively orally deliver |  |  | 
9 | O=C(O)C/C=C/CC(=O)O [Lipid 607, (E)-hex-3-enedioic acid] |  | can effectively orally deliver |  | can effectively orally deliver | can effectively orally deliver |  | can effectively orally deliver | can effectively orally deliver |  |  | can effectively orally deliver
10 | CC(CC(=O)O)C(=O)O (stereo not drawn) [Lipid 608, 2-methylbutanedioic acid] |  |  |  | can effectively orally deliver | can effectively orally deliver |  |  |  | can effectively orally deliver | can effectively orally deliver | can effectively orally deliver
11 | CCCCCCCCCCCCCCCO [Lipid 609, pentadecan-1-ol] |  |  | can effectively orally deliver | can effectively orally deliver | can effectively orally deliver |  | can effectively orally deliver | can effectively orally deliver | can effectively orally deliver |  | can effectively orally deliver
12 | CCCCC(N)=O [Lipid 610] |  |  |  | can effectively orally deliver |  |  | can effectively orally deliver |  | can effectively orally deliver | can effectively orally deliver | can effectively orally deliver
13 | CCCCCCCCCCCC(N)=O [Lipid 611, dodecanamide] |  |  |  | can effectively orally deliver |  |  |  |  |  | can effectively orally deliver | can effectively orally deliver
14 | CC(=O)C1CCOC1=O (stereo not drawn) [Lipid 612, 3-acetyloxolan-2-one] |  |  |  | can effectively orally deliver |  | can effectively orally deliver |  | can effectively orally deliver |  |  | can effectively orally deliver
